The text below walks through data of patent US8110570B2, “Modulators of acetyl-coenzyme A carboxylase and methods of use thereof” (Cropsolution, Inc., priority 2008, dated 2012).

In one experiment the target is T1, hACC1 (Homo sapiens, UniProt Q13085).
T1 construct: PCR primers were designed for full-length hACC1 and hACC2 using GenBank submissions AY237919 and AJ575592, respectively; His tag (C); made in house; host or cells: baculovirus, Sf9 insect cells
Description: [14C]bicarbonate incorporation assay, overall ACC activity. It counts as biochemical. To be noted: recombinant hACC1, overall ACC activity. In outline:
(§1)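 His-tagged full-length hACC1 or hACC2 (residues 1-148 deleted, Met-Gly added), expressed in sf9 cells with biotin and purified, were assayed by [14C]bicarbonate incorporation into acetyl-CoA. Reactions at pH 7.4 with 2 mM acetyl-CoA, 12 mM NaHCO3 and 1% DMSO were started with 2 mM ATP and run 10 min at 37° C. Acid-stable label was counted and IC50 obtained from dose-response fits.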

For the next experiment, the target named is T2, hACC2 (Homo sapiens, UniProt O00763).
T2 construct: delete amino acids 1-148 and add Met-Gly in front of Lys149 in the final product; His tag (C); made in house; host or cells: baculovirus, Sf9 insect cells
T2 sequence (O00763 149-2458 limits assumed): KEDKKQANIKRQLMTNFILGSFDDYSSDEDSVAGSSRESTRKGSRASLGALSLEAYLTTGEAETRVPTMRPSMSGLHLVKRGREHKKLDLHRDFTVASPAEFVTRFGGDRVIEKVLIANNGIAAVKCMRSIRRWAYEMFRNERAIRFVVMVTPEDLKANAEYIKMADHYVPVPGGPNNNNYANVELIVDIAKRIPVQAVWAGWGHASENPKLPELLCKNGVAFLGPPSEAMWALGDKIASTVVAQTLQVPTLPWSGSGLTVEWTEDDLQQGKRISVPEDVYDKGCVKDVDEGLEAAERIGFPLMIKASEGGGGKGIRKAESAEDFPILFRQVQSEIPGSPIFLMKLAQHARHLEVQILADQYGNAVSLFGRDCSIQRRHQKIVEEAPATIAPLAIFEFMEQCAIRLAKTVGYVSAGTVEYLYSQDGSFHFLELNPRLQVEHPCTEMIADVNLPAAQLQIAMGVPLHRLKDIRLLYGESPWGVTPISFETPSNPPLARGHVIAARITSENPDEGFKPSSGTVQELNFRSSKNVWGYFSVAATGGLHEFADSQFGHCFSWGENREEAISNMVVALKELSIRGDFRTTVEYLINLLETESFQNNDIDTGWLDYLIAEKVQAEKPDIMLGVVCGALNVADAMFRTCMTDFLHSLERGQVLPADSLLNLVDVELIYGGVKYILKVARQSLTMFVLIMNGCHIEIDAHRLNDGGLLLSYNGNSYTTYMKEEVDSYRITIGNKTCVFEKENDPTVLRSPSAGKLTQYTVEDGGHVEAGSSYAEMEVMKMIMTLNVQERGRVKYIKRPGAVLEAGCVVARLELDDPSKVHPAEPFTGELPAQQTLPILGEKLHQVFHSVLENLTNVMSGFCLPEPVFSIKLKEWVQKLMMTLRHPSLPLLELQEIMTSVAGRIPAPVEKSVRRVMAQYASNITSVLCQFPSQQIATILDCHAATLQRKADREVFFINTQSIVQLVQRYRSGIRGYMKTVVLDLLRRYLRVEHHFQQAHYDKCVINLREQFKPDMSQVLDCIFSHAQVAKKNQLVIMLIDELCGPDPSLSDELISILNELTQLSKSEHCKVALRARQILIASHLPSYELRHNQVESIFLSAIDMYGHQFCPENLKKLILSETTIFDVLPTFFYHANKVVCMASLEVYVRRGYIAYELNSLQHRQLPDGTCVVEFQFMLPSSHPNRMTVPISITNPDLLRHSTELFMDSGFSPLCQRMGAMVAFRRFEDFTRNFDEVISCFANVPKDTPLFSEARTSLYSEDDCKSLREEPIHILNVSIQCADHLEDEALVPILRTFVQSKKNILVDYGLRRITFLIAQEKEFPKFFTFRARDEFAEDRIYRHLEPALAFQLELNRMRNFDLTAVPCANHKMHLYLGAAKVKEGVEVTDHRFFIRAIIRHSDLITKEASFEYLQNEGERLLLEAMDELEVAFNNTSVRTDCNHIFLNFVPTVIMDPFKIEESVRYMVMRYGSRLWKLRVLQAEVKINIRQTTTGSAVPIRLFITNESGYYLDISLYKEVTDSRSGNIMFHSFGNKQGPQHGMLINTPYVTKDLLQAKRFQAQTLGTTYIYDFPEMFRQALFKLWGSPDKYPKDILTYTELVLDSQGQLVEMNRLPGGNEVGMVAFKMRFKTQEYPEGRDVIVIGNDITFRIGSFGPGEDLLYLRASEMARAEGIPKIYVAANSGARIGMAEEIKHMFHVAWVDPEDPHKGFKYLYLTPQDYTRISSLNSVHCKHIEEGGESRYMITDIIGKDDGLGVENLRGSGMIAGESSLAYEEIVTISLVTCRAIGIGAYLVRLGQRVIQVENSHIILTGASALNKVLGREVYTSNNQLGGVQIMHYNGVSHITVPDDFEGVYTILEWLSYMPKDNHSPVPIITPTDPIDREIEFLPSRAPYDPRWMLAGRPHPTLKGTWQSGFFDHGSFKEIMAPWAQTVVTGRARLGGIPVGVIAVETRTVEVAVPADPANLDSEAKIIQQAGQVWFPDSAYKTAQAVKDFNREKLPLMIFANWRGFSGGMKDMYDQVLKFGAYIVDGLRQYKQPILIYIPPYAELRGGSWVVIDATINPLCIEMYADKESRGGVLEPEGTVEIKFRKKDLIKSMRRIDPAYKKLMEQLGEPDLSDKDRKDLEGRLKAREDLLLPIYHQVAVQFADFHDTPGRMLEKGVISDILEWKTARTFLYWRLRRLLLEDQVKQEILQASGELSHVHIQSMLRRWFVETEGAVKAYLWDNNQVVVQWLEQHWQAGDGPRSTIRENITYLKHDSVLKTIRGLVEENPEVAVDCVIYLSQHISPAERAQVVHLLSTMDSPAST
The experiment is described as above. It counts as biochemical. To be noted: recombinant hACC2, overall ACC activity. A digest of the protocol:
as §1

In experiment [1] the target is uACC (Ustilago maydis ACC) (Ustilago maydis, UniProt A0A0D1DYD5). The experiment is described as above. It counts as biochemical.
Chain of uACC (Ustilago maydis ACC) (A0A0D1DYD5 entry or part of it): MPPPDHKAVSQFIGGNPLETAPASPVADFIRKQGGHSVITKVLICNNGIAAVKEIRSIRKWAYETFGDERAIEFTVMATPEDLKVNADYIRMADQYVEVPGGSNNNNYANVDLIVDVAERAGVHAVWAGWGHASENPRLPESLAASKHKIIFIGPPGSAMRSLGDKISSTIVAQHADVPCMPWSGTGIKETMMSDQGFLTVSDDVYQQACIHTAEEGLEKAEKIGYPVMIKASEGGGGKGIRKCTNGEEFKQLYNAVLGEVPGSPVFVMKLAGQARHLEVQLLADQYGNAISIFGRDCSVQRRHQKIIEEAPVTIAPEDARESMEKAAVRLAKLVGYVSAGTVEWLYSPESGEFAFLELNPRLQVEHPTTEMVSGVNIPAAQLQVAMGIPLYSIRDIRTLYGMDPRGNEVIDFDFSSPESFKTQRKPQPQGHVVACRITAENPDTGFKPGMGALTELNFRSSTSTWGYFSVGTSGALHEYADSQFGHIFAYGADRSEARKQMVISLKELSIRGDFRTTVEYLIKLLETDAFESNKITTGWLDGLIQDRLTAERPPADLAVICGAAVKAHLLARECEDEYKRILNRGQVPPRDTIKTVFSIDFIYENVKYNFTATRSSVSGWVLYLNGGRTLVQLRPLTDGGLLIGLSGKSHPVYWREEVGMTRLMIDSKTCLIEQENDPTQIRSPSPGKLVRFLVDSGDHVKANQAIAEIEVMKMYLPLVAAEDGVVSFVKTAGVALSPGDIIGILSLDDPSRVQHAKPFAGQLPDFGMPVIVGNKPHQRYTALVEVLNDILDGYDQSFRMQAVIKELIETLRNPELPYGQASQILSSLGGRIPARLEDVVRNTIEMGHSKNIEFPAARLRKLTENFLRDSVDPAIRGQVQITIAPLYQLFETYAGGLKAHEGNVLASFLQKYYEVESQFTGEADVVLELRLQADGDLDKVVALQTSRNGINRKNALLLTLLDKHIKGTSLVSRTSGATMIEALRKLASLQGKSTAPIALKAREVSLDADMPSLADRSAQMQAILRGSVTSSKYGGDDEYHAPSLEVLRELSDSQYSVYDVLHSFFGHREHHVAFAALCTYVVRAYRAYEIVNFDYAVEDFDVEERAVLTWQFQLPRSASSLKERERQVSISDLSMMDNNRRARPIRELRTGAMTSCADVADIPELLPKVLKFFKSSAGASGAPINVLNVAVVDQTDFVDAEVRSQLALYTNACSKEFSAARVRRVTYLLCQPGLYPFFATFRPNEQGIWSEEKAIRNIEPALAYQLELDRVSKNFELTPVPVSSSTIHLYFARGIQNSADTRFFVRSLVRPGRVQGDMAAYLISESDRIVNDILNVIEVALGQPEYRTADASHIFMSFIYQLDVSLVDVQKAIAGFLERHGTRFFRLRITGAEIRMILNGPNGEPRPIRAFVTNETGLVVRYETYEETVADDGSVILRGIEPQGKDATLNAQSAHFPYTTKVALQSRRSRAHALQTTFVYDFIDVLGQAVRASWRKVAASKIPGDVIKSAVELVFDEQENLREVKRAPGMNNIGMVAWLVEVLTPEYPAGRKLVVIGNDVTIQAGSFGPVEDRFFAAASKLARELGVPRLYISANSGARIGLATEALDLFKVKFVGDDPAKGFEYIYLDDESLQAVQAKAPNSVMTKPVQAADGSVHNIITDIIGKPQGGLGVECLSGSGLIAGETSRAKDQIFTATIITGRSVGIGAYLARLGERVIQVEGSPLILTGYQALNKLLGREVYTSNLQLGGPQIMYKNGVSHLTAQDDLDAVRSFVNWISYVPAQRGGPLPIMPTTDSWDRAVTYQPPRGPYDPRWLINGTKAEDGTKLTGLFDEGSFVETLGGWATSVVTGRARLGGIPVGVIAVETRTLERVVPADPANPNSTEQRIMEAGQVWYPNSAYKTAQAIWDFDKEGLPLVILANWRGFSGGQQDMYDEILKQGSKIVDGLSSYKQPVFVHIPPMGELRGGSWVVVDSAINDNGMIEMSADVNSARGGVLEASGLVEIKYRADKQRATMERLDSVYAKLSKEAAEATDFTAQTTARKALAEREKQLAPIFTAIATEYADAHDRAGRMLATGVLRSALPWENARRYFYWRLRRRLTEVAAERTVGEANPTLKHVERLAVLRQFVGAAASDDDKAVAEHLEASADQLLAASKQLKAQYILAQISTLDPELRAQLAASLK
A further experiment has as its system HepG2 cells. In words: Fatty acid synthesis assay, 14C-acetate incorporation into phospholipids. The note with it: Homo sapiens, 24 h, read-out: inhibition of radiolabel incorporation into phospholipids. It counts as cell-based. The source says:
(§2) The in vivo ACC inhibitory activity of compounds in this invention can be confirmed in cultured cells using standard procedures that are well known to those skilled in the art. For example, since ACC catalyzes the first committed step in fatty acid biosynthesis, the in vivo activity of compounds can be confirmed by measuring their ability to prevent the formation of radiolabeled fatty acids from radiolabeled acetate in cultured human hepatoma cells (HepG2). In addition, since the malonyl-CoA produced by ACC inhibits fatty acid oxidation, the in vivo ACC inhibitory activity of compounds can be further confirmed by measuring the stimulation of fatty acid oxidation in cultured mouse myoblast cells (C2C12).
Fatty acid synthesis assays are performed with slight modifications to published procedures (Beckers et al., Cancer Res, 2007, 67: 8180-8187; Wang, J Lipid Res., 2006, 47:2028-41). Briefly, HepG2 cells are grown in Dulbecco's modified eagles medium containing 10% fetal calf serum in 6-well culture plates. Cells are treated for 24 h with test compounds added as DMSO stock solutions to a final DMSO concentration of 0.5% (v/v). After test compound incubation, ^14C—[2]-acetate is added (3 μCi/6 well plate) and cells are further incubated for 4 hrs. Cells are then harvested in 40% methanol and assayed for total protein. Total lipids are extracted with chloroform:methanol (2:1) and ^14C-radioactivity is quantified in the aqueous and organic phases. Total lipids in the organic phase are separated by thin-layer chromatography (TLC, silica gel 60A) using hexane:ether:acetic acid (90:30:1) as the mobile phase. Radioactivity distribution of lipid classes on TLC plates is quantified by phosphorimaging (Molecular Dynamics Storm 820). Compound 6 inhibited radiolabel incorporation into phospholipids 32% and 14% at 10 μM and 1 μM, respectively, while Compound 2 inhibited radiolabel incorporation into phospholipids 93% and 42% at 10 μM and 1 μM, respectively.

The next experiment concerns C2C12 cells. Description: Fatty acid oxidation assay, [1-14C]palmitate to CO2. The class given is cell-based, mouse. The note with it: compared to untreated controls.
Description: as §2
Fatty acid oxidation assays are performed essentially as described (Beckers et al., Cancer Res, 2007, 67: 8180-8187). Briefly, C2C12 cells are plated at 600,000 cells/T25 flask. The next day, media is changed and the DMSO with or without test compound is added to a final concentration of 0.5% (v/v). After 1 h at 37° C. in atmosphere of 5% CO2, freshly made 2 uCi of FA-free bovine serum albumin-[1-^14C] palmitate complex is added to each flask. The flasks are then sealed with a stopper and incubated 6 h at 37° C. after which evolved CO2 is liberated by injection of perchloric acid to final concentration of 5% and captured by incubating the flasks overnight in the presence of filter paper soaked with 5% KOH. The filters are then air-dried and incubated with scintillation cocktail overnight for equilibrium. Radioactivity is quantified by scintillation counting.

The test system of experiment [2] is A2780 human ovary cancer cells. Description: MTT Cell Proliferation Assay. It counts as cell-based. To be noted: 72 hours, read-out: Percent of Control A2780. How it is done:
(§3) The anti-proliferative activity of test compounds against human tumor cell lines is evaluated in vitro using the ATCC's MTT Cell Proliferation Assay (Catalog No. 30-100K). Cell lines are grown using media, serum, and culture conditions recommended by the ATCC. Stock cultures are allowed to grow to 70-80% confluence. Cells are seeded into 96-well culture plates at a predetermined density on day 0 in complete medium (0.1 mL). Plates are placed in a humidified incubator at 37° C. with 5% CO2 and 95% HEPA filtered room air for 24 hours. At this point compound (0.1 mL of 2× stock (in media)) is added to the indicated wells and the plates are returned to the incubator for 72 hours. Cell proliferation is measured by addition of MTT reagent to each well and incubated for an additional 4 hours, followed by addition of cell lysis/MTT solublization reagent and incubating overnight. […] Results are expressed as percent of control cells versus compound concentration. Compounds of the present invention, and salts thereof, were evaluated for anti-proliferative activity as described above.

For experiment [3], the system named is HCT-116 human colon cancer cells. In words: MTT Cell Proliferation Assay. It counts as cell-based. To be noted: 72 hours, read-out: Percent of Control HCT-116. How it is done: as §3
In experiment [4] the test system is MDA-MB-231 human breast cancer cells. Description: MTT Cell Proliferation Assay. The class given is cell-based. To be noted: 72 hours, read-out: Percent of Control MDA-MB-231. How it is done: as §3
Experiment [5] has as its system PC-3 human prostate cancer cells. In words: MTT Cell Proliferation Assay. It counts as cell-based. The note with it: 72 hours, read-out: Percent of Control PC-3. How it is done: as §3
In experiment [6] the test system is hepatic fatty acid synthesis. Description: In vivo inhibition of rat hepatic fatty acid synthesis. To be noted: oral. On the procedure: In vivo measurement of fatty acid synthesis inhibition in mammals. Incorporation of [2-^14C]acetate into saponifiable lipids in the livers of mammals (e.g. Sprague Dawley rats, Charles River Laboratories, Boston, Mass. or Harlan Laboratories, Indianapolis, Ind.) can be measured as described previously (Harwood Jr. H. J. et al., J Biol Chem, 39: 37099-37111 (2003)). For example, animals given food and water ad libitum are treated orally at volume of 1.0 ml/200 g of body weight with either an aqueous solution containing 0.5% methyl cellulose (vehicle) or an aqueous solution containing 0.5% methyl cellulose containing test compound. One hour after compound administration, animals receive an intraperitoneal injection of [2-^14C]acetate (0.02 mL, 1 mCi/mL; 50 mCi/mmol. One hour after radiolabel administration, animals are sacrificed by CO2 asphyxiation, and two liver pieces (about 0.75 g each) are removed and saponified at 70° C. for 120 min in 2.5 M NaOH (1.5 mL). After saponification, absolute EtOH (2.5 mL) is added to each sample and the solutions are mixed and allowed to stand overnight. Petroleum ether (4.8 mL) is then added to each sample, and after vigorous shaking (2 min) the mixtures are centrifuged at 1000×g (5 min). The petroleum ether layer containing the nonsaponifiable lipids is removed and discarded. The remaining aqueous layer is acidified (pH<2) by addition of 12 M HCl (0.6 mL) and extracted two times with petroleum ether (4.8 mL). The pooled organic fractions are transferred to liquid scintillation vials, dried under nitrogen, dissolved in Aquasol scintillation fluid (7 ml), and radioactivity is quantified by liquid scintillation counting. Inhibition of fatty acid synthesis by the test compound is expressed as a relative percent inhibition of measured incorporation of [2-^14C]acetate into saponifiable lipids during the interval between [2-^14C]acetate injection and CO2 asphyxiation in animals receiving test compound, compared to control animals receiving only the vehicle.
Compounds of the present invention, and salts thereof, were evaluated for inhibition of fatty acid synthesis as described above.

The structures appear in SMILES notation.

Consider `Cc1c(C(=O)N2CCC3(CC2)NC(=O)c2ccccc2O3)[nH]c2ccc(F)cc12` [Compound 6, 1′-[(5-Fluoro-3-methyl-1H-indol-2-yl)carbonyl]spiro[2H-1,3-benzoxazin-2,4′-piperidin]-4-(3H)-one], for which the results for the concentration for half-maximal inhibition (IC50) (at hACC1; on hACC2; in experiment [1]) were 2300 nM, 2000 nM and 40000 nM, respectively. Also, the inhibition at 1 µM in the experiment with HepG2 cells (HepG2, 1 μM) stood at 14%. Besides, in the experiment on HepG2 cells (HepG2, 10 μM), the inhibition at 10 µM worked out at 32%. The “stimulation of fatty acid oxidation” value was 260% with C2C12 cells (C2C12, 0.2 μM) and 299% in the experiment on C2C12 cells (C2C12, 2 μM).

For the molecule `CCOc1ccc2c(c1)C(=O)NC1(CCN(C(=O)c3cc(OC)c4cccc(OC)c4n3)CC1)O2` [Compound 139], the figures for the half-maximal inhibitory concentration (IC50) (on hACC1; on hACC2; in [1]) were 50 nM, 33 nM and 20000 nM, respectively. Moreover, the activity at 3.3 µM was found to be 85.9% in [2], 68.4% in [3], 70.3% in [4] and 57% in experiment [5]. The activity at 10 µM stood at 60.1% in [2], 49.9% in experiment [3], 46.4% in experiment [4] and 54.7% in experiment [5].

For the molecule `CCOc1ccc2c(c1)C(=O)NC1(CCN(C(=O)c3[nH]c4c(OC)cccc4c3C)CC1)O2` [Compound 144], the IC50 – broadly, the concentration that inhibits the measured activity by half – amounted to 61 nM at hACC1, 88 nM on hACC2 and 14000 nM in [1]. Further, the activity at 3.3 µM in [2] was 65%; in [3], 64.9%; in experiment [4] it was 88.9%; in experiment [5] it was 76.5%. Also, the activity at 10 µM in experiment [2] is 25.1%; in experiment [3], 39.1%; in experiment [4], 34.5%; in experiment [5] it was 67.2%. For the same molecule, the “Percent Inhibition at 30 mg/Kg” value in experiment [6] is reported as 9%.

As for `CCOc1ccc2c(c1)C(=O)NC1(CCN(C(=O)c3cc(OC)c4cccc(OC)c4c3)CC1)O2` [Compound 146, 1′-[(4,8-Dimethoxynaphth-2-yl)carbonyl]-6-ethoxyspiro[2H-1,3-benzoxazin-2,4′-piperidin]-4-(3H)-one], the IC50 stood at 5 nM at hACC1, 4 nM at hACC2 and 3000 nM in experiment [1].

As to `COc1cc(C(=O)N2CCC3(CC2)NC(=O)c2cc(OC(F)(F)F)ccc2O3)nc2c(OC)cccc12` [Compound 172], the IC50 on hACC1 was 7 nM. Further, the activity at 3.3 µM in experiment [2] turned out to be 97.4%; in experiment [3], 61.4%; in experiment [4], 54.1%; in [5], 63%. Also, the activity at 10 µM in experiment [2] stood at 65.5%; in experiment [3], 41.6%; in experiment [4], 29.5%; in experiment [5] it was 55.7%. Further, in experiment [6], the “Percent Inhibition at 10 mg/Kg” value amounted to 5%.

Turning to `COc1cc(C(=O)N2CCC3(CC2)NC(=O)c2cc(C(C)C)ccc2O3)nc2c(OC)cccc12` [Compound 186], the half-maximal inhibitory concentration (IC50) on hACC1 and on hACC2 was 2 nM in each case. Moreover, the activity at 3.3 µM in [2] was 59.5%; in experiment [3] it was 53.6%; in experiment [4], 74.2%; in [5] it was 48.9%. Also, the activity at 10 µM in [2] was 52.1%; in experiment [3], 41.8%; in [4], 39.2%; in [5], 33.2%. Also, the “Percent Inhibition at 10 mg/Kg” value in experiment [6] worked out at 55%. The “Percent Inhibition at 30 mg/Kg” value in experiment [6] is reported as 78%.

For `COc1cc(C(=O)N2CCC3(CC2)NC(=O)c2cc(N4CCOCC4)ccc2O3)nc2c(OC)cccc12` [Compound 196], the IC50 came out at 200 nM on hACC1 and 21 nM at hACC2. Moreover, the activity at 3.3 µM in experiment [2] was 81.6%; in experiment [3], 63.6%; in experiment [4], 73.7%; in experiment [5], 50.7%. The activity at 10 µM in experiment [2] worked out at 56.4%; in experiment [3] it was 58.5%; in experiment [4], 56.1%; in [5], 39%. Also, the “Percent Inhibition at 10 mg/Kg” value in experiment [6] is 67%.
